Patent publication US8450313B2, “2,3-diaryl- or heteroaryl-substituted 1,1,1-trifluoro-2-hydroxypropyl compounds” (Hoffmann-La Roche Inc., priority 2009, dated 2013)
pKi: −log10 of the molar value.

What follows are molecules tested against T1, full length human recombinant glucocorticoid receptor (Homo sapiens, UniProt P04150) (assay: Glucocorticoid Receptor Binding Assay (Glucocorticoid Receptor Competitor Assay far red kit, fluorescence polarization)). Conditions: competition with fluorescent GR ligand Fluormone GS Far Red, 3 hours at 22° C., pH 7.4; Ki calculated from IC50 by Cheng-Prusoff.
T1 construct: It contains some partially purified full length human recombinant glucocorticoid receptor; purchased Panvera/Invitrogen PV4302
T1 sequence (P04150 1-777): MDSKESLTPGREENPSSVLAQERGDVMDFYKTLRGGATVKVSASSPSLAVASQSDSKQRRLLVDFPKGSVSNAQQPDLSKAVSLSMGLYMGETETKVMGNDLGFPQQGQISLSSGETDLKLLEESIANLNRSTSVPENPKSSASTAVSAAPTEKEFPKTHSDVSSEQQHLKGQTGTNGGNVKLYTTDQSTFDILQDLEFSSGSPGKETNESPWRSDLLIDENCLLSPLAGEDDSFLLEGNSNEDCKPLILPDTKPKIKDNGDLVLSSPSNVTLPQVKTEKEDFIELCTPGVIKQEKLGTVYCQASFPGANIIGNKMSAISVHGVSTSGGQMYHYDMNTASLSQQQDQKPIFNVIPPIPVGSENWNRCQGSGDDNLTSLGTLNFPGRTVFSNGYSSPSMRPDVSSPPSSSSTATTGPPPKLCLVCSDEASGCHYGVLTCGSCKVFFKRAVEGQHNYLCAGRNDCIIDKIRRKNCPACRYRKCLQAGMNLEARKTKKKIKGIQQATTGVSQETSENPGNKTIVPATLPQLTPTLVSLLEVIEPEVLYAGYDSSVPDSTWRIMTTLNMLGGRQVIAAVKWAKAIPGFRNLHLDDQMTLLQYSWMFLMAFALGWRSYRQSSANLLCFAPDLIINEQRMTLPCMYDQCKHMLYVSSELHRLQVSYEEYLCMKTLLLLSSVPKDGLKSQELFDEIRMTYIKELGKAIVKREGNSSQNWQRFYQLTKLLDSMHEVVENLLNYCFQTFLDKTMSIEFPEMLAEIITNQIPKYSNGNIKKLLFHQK
Summary of the method: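 Fluorescence polarization competition with partially purified full-length human recombinant GR, stabilizing peptide and Fluormone GS Far Red tracer in screening buffer pH 7.4; 3 hours at 22° C in the dark, read at 610–660 nm. IC50 from sigmoidal fit; Ki by Cheng-Prusoff.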

Compound	pKi
CCOC(=O)COc1ccc(Cl)c([C@H](C)[C@](O)(c2ccc3c(c2)N(C)C(=O)CO3)C(F)(F)F)c1 (stereo in doubt) [Example 3, {4-Chloro-3-[3,3,3-trifluoro-2-hydroxy-1-methyl-2-(4-methyl-3-oxo-3,4-dihydro-2H-benzo[1,4]oxazin-6-yl)-propyl]-phenoxy}-acetic acid ethyl ester]	8.04
C[C@@H](c1cc(Oc2cccc(C(=O)O)c2)ccc1Cl)[C@](O)(c1ccc2c(c1)N(C)C(=O)CO2)C(F)(F)F (stereo in doubt) [Example 6, 3-{4-Chloro-3-[3,3,3-trifluoro-2-hydroxy-1-methyl-2-(4-methyl-3-oxo-3,4-dihydro-2H-benzo[1,4]oxazin-6-yl)-propyl]-phenoxy}-benzoic acid]	8.32
C[C@@H](c1ccc(-c2ccc(C(=O)O)cc2F)cc1Cl)[C@](O)(c1ccc2c(c1)N(C)C(=O)CO2)C(F)(F)F (stereo in doubt) [Example 34, 3′-Chloro-2-fluoro-4′-[3,3,3-trifluoro-2-hydroxy-1-methyl-2-(4-methyl-3-oxo-3,4-dihydro-2H-benzo[1,4]oxazin-6-yl)-propyl]-biphenyl-4-carboxylic acid]	8.11
CCOC(=O)C1CCN(c2ccc([C@H](C)[C@](O)(c3ccc4c(c3)N(C)C(=O)CO4)C(F)(F)F)c(Cl)c2)CC1 (stereo in doubt) [Example 42, 1-{3-Chloro-4-[3,3,3-trifluoro-2-hydroxy-1-methyl-2-(4-methyl-3-oxo-3,4-dihydro-2H-benzo[1,4]oxazin-6-yl)-propyl]-phenyl}-piperidine-4-carboxylic acid ethyl ester]	8.40
C[C@@H](c1ccc(-c2ccc(F)c(OCC(=O)O)c2)cc1Cl)[C@](O)(c1cc(F)c2c(c1)N(C)C(=O)CO2)C(F)(F)F (stereo in doubt) [Example 48, {3′-Chloro-4-fluoro-4′-[3,3,3-trifluoro-2-(8-fluoro-4-methyl-3-oxo-3,4-dihydro-2H-benzo[1,4]oxazin-6-yl)-2-hydroxy-1-methyl-propyl]-biphenyl-3-yloxy}-acetic acid]	8.89
COC(=O)c1ccc(-c2ccc([C@H](C)[C@](O)(c3ccc(=O)n4ccccc34)C(F)(F)F)c(Cl)c2)cc1F (stereo in doubt) [Example 49, 3′-Chloro-3-fluoro-4′-[3,3,3-trifluoro-2-hydroxy-1-methyl-2-(4-oxo-4H-quinolizin-1-yl)-propyl]-biphenyl-4-carboxylic acid methyl ester]	7.80
C[C@@H](c1ccc(-c2ccc(C(=O)O)c(F)c2)cc1Cl)[C@](O)(c1ccc(=O)n2ccccc12)C(F)(F)F (stereo in doubt) [Example 50, 3′-Chloro-3-fluoro-4′-[3,3,3-trifluoro-2-hydroxy-1-methyl-2-(4-oxo-4H-quinolizin-1-yl)-propyl]-biphenyl-4-carboxylic acid]	7.31
COC(=O)c1ccc(-c2ccc([C@@H](C)[C@@](O)(c3cnc4c(c3)N(C)C(=O)CO4)C(F)(F)F)c(Cl)c2)cc1F (stereo in doubt) [Example 51, 3′-Chloro-3-fluoro-4′-[3,3,3-trifluoro-2-hydroxy-1-methyl-2-(1-methyl-2-oxo-2,3-dihydro-1H-pyrido[2,3-b][1,4]oxazin-7-yl)-propyl]-biphenyl-4-carboxylic acid methyl ester]	7.68
C=CCN1C(=O)COc2ccc([C@](O)([C@H](C)c3ccc(-c4ccc(C(=O)OC)c(F)c4)cc3Cl)C(F)(F)F)cc21 (stereo in doubt) [Example 70, 4′-[2-(4-Allyl-3-oxo-3,4-dihydro-2H-benzo[1,4]oxazin-6-yl)-3,3,3-trifluoro-2-hydroxy-1-methyl-propyl]-3′-chloro-3-fluoro-biphenyl-4-carboxylic acid methyl ester]	6.56

Results, then the molecule that gave them:

pKi	Compound
8.54	C[C@@H](c1ccc(-c2ccc(C(=O)O)cc2)cc1Cl)[C@](O)(c1ccc2c(c1)N(C)C(=O)CO2)C(F)(F)F (stereo in doubt) [Example 22, 3′-Chloro-4′-[3,3,3-trifluoro-2-hydroxy-1-methyl-2-(4-methyl-3-oxo-3,4-dihydro-2H-benzo[1,4]oxazin-6-yl)-propyl]-biphenyl-4-carboxylic acid]
8.89	C[C@@H](c1ccc(-c2cccc(C(=O)O)c2)cc1Cl)[C@](O)(c1ccc2c(c1)N(C)C(=O)CO2)C(F)(F)F (stereo in doubt) [Example 23, 3′-Chloro-4′-[3,3,3-trifluoro-2-hydroxy-1-methyl-2-(4-methyl-3-oxo-3,4-dihydro-2H-benzo[1,4]oxazin-6-yl)-propyl]-biphenyl-3-carboxylic acid]
8.82	C[C@@H](c1ccc(-c2ccc(Cl)c(C(=O)O)c2)cc1Cl)[C@](O)(c1ccc2c(c1)N(C)C(=O)CO2)C(F)(F)F (stereo in doubt) [Example 40, 4,3′-Dichloro-4′-[3,3,3-trifluoro-2-hydroxy-1-methyl-2-(4-methyl-3-oxo-3,4-dihydro-2H-benzo[1,4]oxazin-6-yl)-propyl]-biphenyl-3-carboxylic acid]
6.91	C[C@H](c1ccc(-c2ccc(C(=O)O)c(F)c2)cc1Cl)[C@@](O)(c1cnc2c(c1)N(C)C(=O)CO2)C(F)(F)F (stereo in doubt) [Example 52, 3′-Chloro-3-fluoro-4′-[3,3,3-trifluoro-2-hydroxy-1-methyl-2-(1-methyl-2-oxo-2,3-dihydro-1H-pyrido[2,3-b][1,4]oxazin-7-yl)-propyl]-biphenyl-4-carboxylic acid]
6.55	C[C@H](c1ccc(-c2ccc(C(=O)O)c(F)c2)cc1Cl)[C@@](O)(c1cccc2c1OCC(=O)N2C)C(F)(F)F (stereo in doubt) [Example 54, 3′-Chloro-3-fluoro-4′-[3,3,3-trifluoro-2-hydroxy-1-methyl-2-(4-methyl-3-oxo-3,4-dihydro-2H-benzo[1,4]oxazin-8-yl)-propyl]-biphenyl-4-carboxylic acid]
8.77	C[C@H](c1ccc(-c2ccc(F)c(C(=O)O)c2)cc1Cl)[C@@](O)(c1ccc2c(c1)n(C)c(=O)n2C)C(F)(F)F (stereo in doubt) [Example 74, 3′-Chloro-4′-[2-(1,3-dimethyl-2-oxo-2,3-dihydro-1H-benzoimidazol-5-yl)-3,3,3-trifluoro-2-hydroxy-1-methyl-propyl]-4-fluoro-biphenyl-3-carboxylic acid]
9.00	C[C@H](c1ccc(-c2ccc(C(=O)O)c(Cl)c2)cc1Cl)[C@@](O)(c1ccc2c(c1)n(C)c(=O)n2C)C(F)(F)F (stereo in doubt) [Example 76, 3,3′-Dichloro-4′-[2-(1,3-dimethyl-2-oxo-2,3-dihydro-1H-benzoimidazol-5-yl)-3,3,3-trifluoro-2-hydroxy-1-methyl-propyl]-biphenyl-4-carboxylic acid]
8.62	C[C@H](c1ccc(-c2ccc(C(=O)O)cc2)cc1Cl)[C@@](O)(c1ccc2c(c1)n(C)c(=O)n2C)C(F)(F)F (stereo in doubt) [Example 77, 3′-Chloro-4′-[2-(1,3-dimethyl-2-oxo-2,3-dihydro-1H-benzoimidazol-5-yl)-3,3,3-trifluoro-2-hydroxy-1-methyl-propyl]-biphenyl-4-carboxylic acid]
8.89	C[C@H](c1ccc(-c2cccc(C(=O)O)c2)cc1Cl)[C@@](O)(c1ccc2c(c1)n(C)c(=O)n2C)C(F)(F)F (stereo in doubt) [Example 78, 3′-Chloro-4′-[2-(1,3-dimethyl-2-oxo-2,3-dihydro-1H-benzoimidazol-5-yl)-3,3,3-trifluoro-2-hydroxy-1-methyl-propyl]-biphenyl-3-carboxylic acid]
9.00	C[C@H](c1ccc(-c2ccc(Cl)c(C(=O)O)c2)cc1Cl)[C@@](O)(c1ccc2c(c1)n(C)c(=O)n2C)C(F)(F)F (stereo in doubt) [Example 79, 4,3′-Dichloro-4′-[2-(1,3-dimethyl-2-oxo-2,3-dihydro-1H-benzoimidazol-5-yl)-3,3,3-trifluoro-2-hydroxy-1-methyl-propyl]-biphenyl-3-carboxylic acid]
7.87	COc1cc(-c2ccc([C@@H](C)[C@@](O)(c3ccc4c(c3)n(C)c(=O)n4C)C(F)(F)F)c(Cl)c2)ccc1C(=O)O (stereo in doubt) [Example 80, 3′-Chloro-4′-[2-(1,3-dimethyl-2-oxo-2,3-dihydro-1H-benzoimidazol-5-yl)-3,3,3-trifluoro-2-hydroxy-1-methyl-propyl]-3-methoxy-biphenyl-4-carboxylic acid]
8.85	C[C@H](c1ccc(-c2ccc(C(=O)O)cc2Cl)cc1Cl)[C@@](O)(c1ccc2c(c1)n(C)c(=O)n2C)C(F)(F)F (stereo in doubt) [Example 81, 2,3′-Dichloro-4′-[2-(1,3-dimethyl-2-oxo-2,3-dihydro-1H-benzoimidazol-5-yl)-3,3,3-trifluoro-2-hydroxy-1-methyl-propyl]-biphenyl-4-carboxylic acid]
